The values below come from ChEMBL document CHEMBL5344431 (J Med Chem, 2024).

The source made the active and inactive calls. The rule behind the calls is not given here.

A word on the IC50: it is the point on the concentration scale where inhibition reaches its midpoint. High values mean weaker potency, low ones greater potency.

The first test concerns the target T1, Histone deacetylase 8 (Homo sapiens, UniProt Q9BY41).
T1 sequence (Q9BY41 whole entry): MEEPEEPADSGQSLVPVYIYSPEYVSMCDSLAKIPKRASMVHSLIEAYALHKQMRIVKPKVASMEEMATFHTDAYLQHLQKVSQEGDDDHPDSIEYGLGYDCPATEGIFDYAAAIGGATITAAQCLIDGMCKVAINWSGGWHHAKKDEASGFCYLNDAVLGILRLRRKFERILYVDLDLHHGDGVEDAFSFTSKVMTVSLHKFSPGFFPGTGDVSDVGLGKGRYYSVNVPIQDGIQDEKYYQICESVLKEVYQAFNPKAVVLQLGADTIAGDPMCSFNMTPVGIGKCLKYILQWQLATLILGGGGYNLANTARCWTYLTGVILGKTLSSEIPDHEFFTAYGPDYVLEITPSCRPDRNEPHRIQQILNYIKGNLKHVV
The test is described as follows: Inhibition of HDAC8 (unknown origin) using Boc-Lys(TFA)-AMC as substrate preincubated for 1 hr followed by substrate addition and measured after 15 mins by fluorescence based method.
Conditions: not given
`C[n+]1cccc(Br)c1`: the IC50 was found to be 8 µM.

For the compound `C#Cc1cc[n+](C)n1C`, the IC50 is more than 50 µM.

`Cc1o[n+](C)c(C)c1I` yielded a half-inhibitory concentration (IC50) of 2.9 µM.

`C=Cc1cc[n+](C)n1C` yielded a half-maximal inhibitory concentration (IC50) of more than 50 µM.

The compound `C=Cc1c[n+](C)ccn1` displayed a concentration for half-maximal inhibition (IC50) of 0.42 µM.

With `C[n+]1cncc(C#N)c1`, the IC50 was more than 50 µM.

Regarding `Ic1cnccn1`, the half-maximal inhibitory concentration (IC50) was more than 50 µM.

On to `C[n+]1ccsc1Br`, for which the IC50 worked out at 1.2 µM.

`Clc1c[nH]cn1`: the concentration for half-maximal inhibition (IC50) is more than 50 µM.

In turn, `C[n+]1ccnc(Cl)c1` came in with an IC50 of 2.3 µM.

`Ic1cncnc1` came in with an IC50 of more than 50 µM.

In turn, `Cn1cc[n+](C)c1Br` registered an IC50 of 0.33 µM.

`C#Cc1c[n+](C)ccn1` gave an IC50 of 0.42 µM.

Compound `C#Cc1cc[n+](C)cc1` came in with a concentration for half-maximal inhibition (IC50) of 0.079 µM.

With `C#Cc1ccn[nH]1`, the half-inhibitory concentration (IC50) was more than 50 µM.

In turn, `Brc1cnccn1` registered an IC50 of more than 50 µM.

`C[n+]1cncc(Cl)c1` displayed a half-inhibitory concentration (IC50) of 4.3 µM.

Turning to `Clc1cccnc1`, the half-inhibitory concentration (IC50) is more than 50 µM.

`Cc1noc(C)c1I` yielded a half-maximal inhibitory concentration (IC50) of more than 50 µM.

On to `C=Cc1cc[n+](C)cc1`, for which the concentration for half-maximal inhibition (IC50) stood at 3.4 µM.

`Cn1cc(Br)c[n+]1C` showed an IC50 of 27 µM.

Compound `C=Cc1cnc[n+](C)c1` yielded an IC50 of 5 µM.

For `C[n+]1cccc(I)c1`, inhibition was half-maximal at 4.7 µM (IC50).

In turn, `C=Cc1cccnc1` displayed a 50% inhibitory concentration (IC50) of more than 50 µM.

`Cn1cc(I)c[n+]1C`: the IC50 is 9 µM.

As to `Clc1ccncn1`, the IC50 is more than 50 µM.

Consider `C=Cc1ccncc1`, for which the half-inhibitory concentration (IC50) was more than 50 µM.

`C=Cc1cnccn1`: the concentration for half-maximal inhibition (IC50) was more than 50 µM.

`C[n+]1cnccc1Cl`: the IC50 is more than 50 µM.

The compound `C#Cc1nccc[n+]1C` registered a half-inhibitory concentration (IC50) of 0.74 µM.

For `Brc1ccccn1`, the IC50 was more than 50 µM.

`Clc1ccncc1`: the IC50 is more than 50 µM.

On to `Clc1cn[nH]c1`, for which the IC50 was more than 50 µM.

Compound `C[n+]1cccnc1Cl` gave a concentration for half-maximal inhibition (IC50) of 0.43 µM.

As to `C[n+]1cccnc1Br`, the IC50 was 0.22 µM.

`N#Cc1ccncc1` [ISONICOTINONITRILE] displayed an IC50 of more than 50 µM.

`Cn1cc[n+](C)c1C#N` registered a half-maximal inhibitory concentration (IC50) of 22 µM.

`C#Cc1cnccn1` registered an IC50 of more than 50 µM.

The compound `Brc1cccnc1` gave an IC50 of more than 50 µM.

For the compound `C[n+]1ccc(I)cc1`, half-maximal inhibition (IC50) was put at 0.44 µM.

On to `C#Cc1cn(C)[n+](C)c1`, for which it took 10 µM to reach half-maximal inhibition (IC50).

Regarding `Brc1c[nH]cn1`, the IC50 is more than 50 µM.

For the compound `C[n+]1ccccc1Br`, the IC50 turned out to be 1.3 µM.

As for `C[n+]1csc(Br)c1`, inhibition was half-maximal at 0.13 µM (IC50).

The compound `Ic1ncc[nH]1` gave a concentration for half-maximal inhibition (IC50) of more than 50 µM.

On to `C=Cc1ccc[n+](C)c1`, for which the IC50 worked out at 5 µM.

As to `Cn1cc(C#N)c[n+]1C`, the IC50 was more than 50 µM.

Compound `N#Cc1c[nH]cn1` came in with an IC50 of more than 50 µM.

`N#Cc1nccs1` gave an IC50 of more than 50 µM.

`C=Cc1ccn[nH]1` yielded an IC50 of more than 50 µM.

Compound `Cn1cc(Cl)c[n+]1C` gave an IC50 of 14 µM.

Turning to `Clc1ccccn1` [2-CHLOROPYRIDINE], the IC50 was more than 50 µM.

Regarding `N#Cc1ccccn1`, the IC50 is more than 50 µM.

`Cn1cc[n+](C)c1I` returned an IC50 of 1.8 µM.

Consider `Ic1cn[nH]c1`, for which the IC50 was more than 50 µM.

`C[n+]1ccoc1I` displayed a 50% inhibitory concentration (IC50) of 1.2 µM.

The compound `Clc1cnccn1` yielded an IC50 of more than 50 µM.

`C[n+]1ccc(Cl)cc1` showed an IC50 of 6.5 µM.

Turning to `C#Cc1cncnc1`, the IC50 is more than 50 µM.

Regarding `Clc1cncnc1`, the IC50 is more than 50 µM.

`Brc1cn[nH]c1` registered an IC50 of more than 50 µM.

As for `Cn1cc(Br)[n+](C)c1`, half-maximal inhibition (IC50) required 20 µM.

On to `C=Cc1cncnc1`, for which the half-maximal inhibitory concentration (IC50) was more than 50 µM.

`C[n+]1cncc(I)c1` yielded a 50% inhibitory concentration (IC50) of 0.12 µM.

Take `C[n+]1ccnc(I)c1`: the midpoint of inhibition, the IC50, lay at 27 µM.

Take `C[n+]1ccccc1Cl`: the half-maximal inhibitory concentration (IC50) was more than 50 µM.

For the compound `Ic1ccn[nH]1`, the 50% inhibitory concentration (IC50) was more than 50 µM.

The compound `Clc1ncc[nH]1` registered an IC50 of more than 50 µM.

As for `C[n+]1ccc(C#N)cc1`, 14 µM corresponded to half-maximal inhibition (IC50).

`N#Cc1cnccn1` had an IC50 of more than 50 µM.

For `Ic1ccncc1`, the IC50 was found to be 4.61 µM.

For `N#Cc1cccnc1`, the half-inhibitory concentration (IC50) was more than 50 µM.

`Brc1nccs1` registered a 50% inhibitory concentration (IC50) of more than 50 µM.

In turn, `Cn1cc(I)[n+](C)c1` displayed a half-maximal inhibitory concentration (IC50) of 31 µM.

Consider `C#Cc1cn[nH]c1`, for which the IC50 is more than 50 µM.

Take `C[n+]1cccnc1I`: it took 0.152 µM to reach half-maximal inhibition (IC50).

Compound `C#Cc1cnc[n+](C)c1` yielded an IC50 of 21 µM.

For `C#Cc1cccc[n+]1C`, the half-maximal inhibitory concentration (IC50) came out at 2.1 µM.

With `Brc1ccn[nH]1`, the IC50 was more than 50 µM.

With `Brc1cncs1`, 5.6 µM corresponded to half-maximal inhibition (IC50).

`C#Cc1cccnc1` registered a 50% inhibitory concentration (IC50) of more than 50 µM.

Compound `C[n+]1ccccc1C#N` returned an IC50 of 5.3 µM.

Compound `C[n+]1ccsc1C#N` returned an IC50 of more than 50 µM.

`C[n+]1cccc(Cl)c1` showed an IC50 of 14 µM.

`C[n+]1ccnc(C#N)c1` displayed an IC50 of more than 50 µM.

Compound `N#Cc1cncnc1` showed a half-maximal inhibitory concentration (IC50) of more than 50 µM.

`Brc1ncc[nH]1` returned a half-maximal inhibitory concentration (IC50) of more than 50 µM.

The compound `N#Cc1ncc[nH]1` returned an IC50 of more than 50 µM.

In turn, `C=Cc1ccccn1` showed a concentration for half-maximal inhibition (IC50) of more than 50 µM.

Regarding `Cn1c(Br)cc[n+]1C`, 23 µM corresponded to half-maximal inhibition (IC50).

Compound `C[n+]1cccc(C#N)c1` showed a half-inhibitory concentration (IC50) of 12 µM.

Compound `C#Cc1ccncc1` displayed a half-maximal inhibitory concentration (IC50) of 12.6 µM.

Compound `Cn1cc(C#N)[n+](C)c1` came in with a half-maximal inhibitory concentration (IC50) of 24 µM.

`N#Cc1cn[nH]c1` returned a 50% inhibitory concentration (IC50) of more than 50 µM.

In the case of `C[n+]1ccccc1I`, the IC50 turned out to be 0.44 µM.

On to `Brc1ncccn1`, for which the IC50 was more than 50 µM.

`Brc1cncnc1`: the concentration for half-maximal inhibition (IC50) is more than 50 µM.

The compound `Ic1ncccn1` displayed an IC50 of 2.24 µM.

The compound `C[n+]1ccc(Br)cc1` came in with an IC50 of 3.1 µM.

Take `C#Cc1ncccn1`: the IC50 was more than 50 µM.

`Cn1cc(Cl)[n+](C)c1`: the IC50 was found to be 16 µM.

The compound `Ic1ncco1` came in with an IC50 of more than 50 µM.

`Ic1c[nH]cn1` showed an IC50 of more than 50 µM.

In the case of `C[n+]1cncc(Br)c1`, the IC50 worked out at 0.3 µM.

On to `Brc1ccncc1`, for which the IC50 was more than 50 µM.

As for `C[n+]1ccnc(Br)c1`, it took 27 µM to reach half-maximal inhibition (IC50).

Take `N#Cc1ccncn1`: the IC50 is more than 50 µM.

In the case of `Clc1ncccn1`, the 50% inhibitory concentration (IC50) was more than 50 µM.

In the case of `Cn1cc[n+](C)c1Cl`, the 50% inhibitory concentration (IC50) was determined as 0.97 µM.

In turn, `C[n+]1cnccc1C#N` registered an IC50 of 3.6 µM.

In turn, `C#Cc1ccccn1` displayed an IC50 of more than 50 µM.

Compound `C#Cc1ccc[n+](C)c1` gave a half-inhibitory concentration (IC50) of 8.2 µM.

In turn, `Cn1c(I)cc[n+]1C` returned a half-inhibitory concentration (IC50) of 19 µM.

In another test the target is T2, Histone deacetylase 8 (Homo sapiens) (UniProt Q9BY41).
T2 sequence (whole entry): T1 sequence (Q9BY41 whole entry)
The test is described as follows: Inhibition of HDAC8 (unknown origin) upto 100 uM using Boc-Lys(TFA)-AMC as substrate preincubated for 1 hr followed by substrate addition and measured after 15 mins by fluorescence based method. The conditions noted are these: time 75.0 min.
In the case of `C#Cc1cnccc1NC(=O)CCC(=O)N1Cc2ccccc2C1`, the inhibition result is “inactive”.

Take `C#Cc1c[n+](C)ccc1NC(=O)CCC(=O)N1Cc2ccccc2C1`: the inhibition result is “inactive”.

With `C#Cc1cnccc1NC(=O)CC(=O)N1Cc2ccccc2C1`, the inhibition entry was “inactive”.

As for `C#Cc1cnccc1NC(=O)N1Cc2ccccc2C1`, the inhibition result was “inactive”.

The next test has as its target T2, Histone deacetylase 8 (Homo sapiens). The test can be described thus: Inhibition of HDAC8 (unknown origin) at 0.0001 to 10000 uM using Boc-Lys(TFA)-AMC as substrate preincubated for 1 hr followed by substrate addition and measured after 15 mins by fluorescence based method. The settings on record: dose 0.0001-10000 µM, time 75.0 min.
Turning to `C#Cc1c[n+](C)ccc1NC(=O)CCC(=O)N1Cc2ccccc2C1`, the inhibition entry was “inactive”.

Turning to `C#Cc1c[n+](C)ccc1NC(=O)N1Cc2ccccc2C1`, the inhibition result was “inactive”.

For another test the target is unchanged. The test can be described thus: Inhibition of HDAC8 (unknown origin) assessed as Kinact using Boc-Lys(TFA)-AMC as substrate by fluorescence based method.
Conditions: not given
For the compound `C#Cc1c[n+](C)ccc1NC(=O)CC(=O)N1Cc2ccccc2C1`, the K came to 0.005 s⁻¹.

Take `C#Cc1ccc[n+](C)c1`: the K is 0.003 s⁻¹.

For a further test the target is unchanged. The test can be described thus: Inhibition of HDAC8 in human OCI-AML3 cells assessed as increase in SMC3 acetylation at 10 uM incubated for 72 hrs by Western blotting analysis. Format: cell-based. The conditions noted are these: OCI-AML-3.
Regarding `C#Cc1c[n+](C)ccc1NC(=O)CC(=O)N1Cc2ccccc2C1`, the inhibition result was “Active”.

For the next test the target is unchanged. The test can be described thus: Inhibition of HDAC8 in human OCI-AML3 cells assessed as increase in SMC3 acetylation at 20 to 40 uM incubated for 72 hrs by Western blotting analysis. Format: cell-based. The conditions noted are these: OCI-AML-3, dose 20-40 µM. In general terms: In western blotting, separated proteins are transferred to a membrane and probed.
For the compound `C#Cc1ccc[n+](C)c1`, the inhibition result was “Active”.
